Measured values: patent publication US20230027854A1, “ISOXAZOLE DERIVATIVES TARGETING TACC3 AS ANTICANCER AGENTS” (A2A Pharmaceuticals, inc., priority 2019, published 2023)

Each compound was assayed on JIMT-1 cells (assay: JIMT-1 cell growth inhibition / cell viability (SRB assay)). Conditions: Homo sapiens; JIMT-1 cells; read-out: IC50.
Format: cell-based
Description: The ability of the compounds of the present disclosure to treat TACC3-mediated cancers, or associated symptoms or complications thereof, was determined using the following procedures. The compounds of the present disclosure were tested for their activity against cell death induction using a JIMT-1 cell line, which was a cell line having high level of TACC3. The concentration of each compound that was required for half-maximal inhibition of cell proliferation was calculated by a GraphPad Prism (GraphPad Software).

| Compound | IC50 |
| --- | --- |
| COc1cccc(-c2cc(Nc3ccnc(N4CCOCC4)n3)on2)c1 [Compound 6, 3-(3-methoxyphenyl)-N-(2-morpholinopyrimidin-4-yl)isoxazol-5-amine] | 3440 nM |
| COc1ccccc1-c1cc(Nc2ccnc(N3CCOCC3)n2)on1 [Compound 7, 3-(2-methoxyphenyl)-N-(2-morpholinopyrimidin-4-yl)isoxazol-5-amine] | 8270 nM |
| c1ccc(-c2cc(Nc3ccnc(N4CCOCC4)n3)on2)cc1 [Compound 8, N-(2-morpholinopyrimidin-4-yl)-3-phenylisoxazol-5-amine] | > 10000 nM |
| CCOc1ccc(-c2cc(Nc3ccnc(N4CCOCC4)n3)on2)cc1 [Compound 9, 3-(4-ethoxyphenyl)-N-(2-morpholinopyrimidin-4-yl)isoxazol-5-amine] | 810 nM |
| CCCOc1ccc(-c2cc(Nc3ccnc(N4CCOCC4)n3)on2)cc1 [Compound 10, N-(2-morpholinopyrimidin-4-yl)-3-(4-propoxyphenyl)isoxazol-5-amine] | > 10000 nM |
| Fc1ccc(-c2cc(Nc3ccnc(N4CCOCC4)n3)on2)cc1 [Compound 11, 3-(4-fluorophenyl)-N-(2-morpholinopyrimidin-4-yl)isoxazol-5-amine] | > 10000 nM |
| Clc1ccc(-c2cc(Nc3ccnc(N4CCOCC4)n3)on2)cc1 [Compound 12, 3-(4-chlorophenyl)-N-(2-morpholinopyrimidin-4-yl)isoxazol-5-amine] | > 10000 nM |
| Cc1ccc(-c2cc(Nc3ccnc(N4CCOCC4)n3)on2)cc1 [Compound 13, N-(2-morpholinopyrimidin-4-yl)-3-(p-tolyl)isoxazol-5-amine] | 640 nM |
| CCc1ccc(-c2cc(Nc3ccnc(N4CCOCC4)n3)on2)cc1 [Compound 14, 3-(4-ethylphenyl)-N-(2-morpholinopyrimidin-4-yl)isoxazol-5-amine] | 259 nM |
| CC(C)c1ccc(-c2cc(Nc3ccnc(N4CCOCC4)n3)on2)cc1 [Compound 15, 3-(4-isopropylphenyl)-N-(2-morpholinopyrimidin-4-yl)isoxazol-5-amine] | 3610 nM |
| FC(F)(F)c1ccc(-c2cc(Nc3ccnc(N4CCOCC4)n3)on2)cc1 [Compound 16, N-(2-morpholinopyrimidin-4-yl)-3-(4-(trifluoromethyl)phenyl)isoxazol-5-amine] | > 10000 nM |
| CC(F)(F)c1ccc(-c2cc(Nc3ccnc(N4CCOCC4)n3)on2)cc1 [Compound 17, 3-(4-(1,1-difluoroethyl)phenyl)-N-(2-morpholinopyrimidin-4-yl)isoxazol-5-amine] | > 10000 nM |
| FC(F)Oc1ccc(-c2cc(Nc3ccnc(N4CCOCC4)n3)on2)cc1 [Compound 18, 3-(4-(difluoromethoxy)phenyl)-N-(2-morpholinopyrimidin-4-yl)isoxazol-5-amine] | 4230 nM |
| FC(F)(F)Oc1ccc(-c2cc(Nc3ccnc(N4CCOCC4)n3)on2)cc1 [Compound 19, N-(2-morpholinopyrimidin-4-yl)-3-(4-(trifluoromethoxy)phenyl)isoxazol-5-amine] | > 10000 nM |
| CSc1ccc(-c2cc(Nc3ccnc(N4CCOCC4)n3)on2)cc1 [Compound 20, 3-(4-(methylthio)phenyl)-N-(2-morpholinopyrimidin-4-yl)isoxazol-5-amine] | 30 nM |
| CN(C)c1ccc(-c2cc(Nc3ccnc(N4CCOCC4)n3)on2)cc1 [Compound 21, 3-(4-(dimethylamino)phenyl)-N-(2-morpholinopyrimidin-4-yl)isoxazol-5-amine] | 120 nM |
| COc1ccc(-c2cc(Nc3ccnc(N4CCOCC4)n3)on2)cc1F [Compound 22, 3-(3-fluoro-4-methoxyphenyl)-N-(2-morpholinopyrimidin-4-yl)isoxazol-5-amine] | 13 nM |
| COc1ccc(-c2cc(Nc3ccnc(N4CCOCC4)n3)on2)cc1Cl [Compound 23, 3-(3-chloro-4-methoxyphenyl)-N-(2-morpholinopyrimidin-4-yl)isoxazol-5-amine] | 480 nM |
| COc1ccc(-c2cc(Nc3ccnc(N4CCOCC4)n3)on2)cc1OC [Compound 24, 3-(3,4-dimethoxyphenyl)-N-(2-morpholinopyrimidin-4-yl)isoxazol-5-amine] | 730 nM |
